Where a name gives a salt, the structure may show the parent alone. Read-outs that look alike come from different tables or passages of the source.
How the values were obtained:
[1] = Solubility Test (water-solubility); assay type: physicochemical
platelet aggregation [2] = assay: Test of Platelet Aggregation Inhibition (in vitro), human PRP; assay type: cell-based; details: for IC50: Homo sapiens, Platelet, human blood, read-out: Platelet Aggregation Inhibitory Activity (in vitro: IC50)
Description: (§1) The test was performed as follows in accordance with the method of Ashida et al, Thrombosis and Haemostasis, Vol. 40, p542 (1979).
(§2) Blood was taken by puncture from the heart of a Wistar Imamichi rat under anesthesia with pentobarbital into a syringe containing 1/10 volume of a 3.13% aqueous solution of sodium citrate dihydrate, and the citrated blood was centrifuged to obtain a platelet-rich-plasma (PRP). In the same manner, citrated blood was collected from the vein of a healthy human who had not taken aspirin or any other anti-inflammatory agent since before 10 days, followed by centrifugation to obtain PRP. 0.005 ml of each test compound was added to 0.445 ml each of these PRP samples, and the system was warmed at 30° C. for 1 minute. 0.05 ml of an aggregation inducer (ADP or collagen) was then added thereto, and platelet aggregation was determined according to the method of Born, Nature, Vol. 194, p927 (1962). The inhibitory activity of platelet aggregation was expressed in terms of 50% inhibition concentration, and the results obtained are shown in Table 2.

platelet aggregation [3] = assay: Test of Platelet Aggregation Inhibition (in vitro), rat PRP; assay type: cell-based, rat (Wistar Imamichi); details: rat blood, read-out: Platelet Aggregation Inhibitory Activity (in vitro: IC50)
Description: as §1, §2

platelet aggregation [4] = assay: Test of Platelet Aggregation Inhibition (ex vivo, p.o.); assay type: in vivo, rat (male Wistar Imamichi); details: for inhibition at 1 mg/kg / inhibition at 10 mg/kg: Rattus norvegicus, Platelet, po, 1 h, read-out: Platelet Aggregation Inhibitory Activity (ex vivo: % inhibition); for inhibition at 1 mg/kg: p.o. 1 mg/Kg; for inhibition at 10 mg/kg: p.o. 10 mg/Kg; for aggregation inhibitory activity ex vivo (in words): p.o. 10 mg/Kg or 1 mg/Kg, ADP- or collagen-induced
Description: One hour later, citrated blood was taken from the heart, and platelet aggregation was determined in the same manner as described in Test Example 2.

circulatory system = assay: Test of Influence on Circulatory System (blood pressure, heart beat); assay type: in vivo, rat (male normal SLC-Wistar); details: p.o. 50 mg/Kg
Description: 5 or 6 male normal SLC-Wistar rats per group (body weight: 205-255 g) orally received 50 mg/Kg of the test compound, and the blood pressure (tail cuff method) and the heart beats were measured with the passage of time in order to elucidate influences of the test compound on the circulatory system.

[5] = pH 2, Tap Water, solution pH about 2

SMILES	solubility ([1]; Water at pH 4) [µg/mL]	solubility [1, 5] [µg/mL]	IC50 (platelet aggregation [2]; inducer ADP) [nM]	IC50 (platelet aggregation [2]; inducer collagen) [nM]	IC50 (platelet aggregation [3]; inducer ADP) [nM]	IC50 (platelet aggregation [3]; inducer collagen) [nM]	inhibition at 1 mg/kg (platelet aggregation [4]; inducer ADP) [%]	inhibition at 1 mg/kg (platelet aggregation [4]; inducer collagen) [%]	inhibition at 10 mg/kg (platelet aggregation [4]; inducer ADP) [%]	inhibition at 10 mg/kg (platelet aggregation [4]; inducer collagen) [%]	aggregation inhibitory activity ex vivo (in words) (platelet aggregation [4])	Increase in Heart Beat (circulatory system; 1 hr after admin.) [%]	Reduction in Blood Pressure (circulatory system; 1 hr after admin.) [%]	Increase in Heart Beat (circulatory system; 2 hr after admin.) [%]	Reduction in Blood Pressure (circulatory system; 2 hr after admin.) [%]	Increase in Heart Beat (circulatory system; 3 hr after admin.) [%]	Reduction in Blood Pressure (circulatory system; 3 hr after admin.) [%]	Increase in Heart Beat (circulatory system; 5 hr after admin.) [%]	Reduction in Blood Pressure (circulatory system; 5 hr after admin.) [%]	Increase in Heart Beat (circulatory system; 6 hr after admin.) [%]	also measured
O=C1CN2Cc3c(ccc(Cl)c3Cl)N=C2N1 [BL-4162, 6,7-dichloro-1,2,3,5-tetrahydro[2,1-b]quinazolin-2-one hydrochloride]	10	10	1200	500	800	20	10	33	8	53	cannot be regarded significant	28	11	37	16	31	17	31	14	31	Increase in Heart Beat (circulatory system; 4 hr after admin.): 37%; Reduction in Blood Pressure (circulatory system; 4 hr after admin.): 14%; Reduction in Blood Pressure (circulatory system; 6 hr after admin.): 13%
Cc1cccc2c1CN1CC(=O)NC1=N2.Cl [BL-3459, 6-methyl-1,2,3,5-tetrahydroimidazo[2,1-b]quinazolin-2-one hydrochloride]	10	100	1700	700	5000	760	12	41	31	54	cannot be regarded significant	18	23	20	28	17	26	18	34	19	Reduction in Blood Pressure (circulatory system; 6 hr after admin.): 35%; Reduction in Blood Pressure (circulatory system; 24 hr after admin.): 12%
Cl.Cl.Nc1ccc2c(c1)CN1CC(=O)NC1=N2 [BL-7-NH2, 7-amino-1,2,3,5-tetrahydroimidazo[2,1-b]quinazolin-2-one dihydrochloride]			50000	28000	170000	16000															anti-platelet aggregation activity (in words) (platelet aggregation [2]; in vitro, Table 2 results (human and rat PRP)): scarcely exhibits platelet aggregation inhibitory activity

— patent US4596806A, “7-piperidino-1,2,3,5-tetrahydroimidazo[2,1-b]-quinazolin-2-one having platelet aggregation inhibitory activity” (Daiichi Seiyaku Co., Ltd., priority 1983, dated 1986)
